Reference: patent US20190315823A1, “SMALL CATIONIC ANTI-BIOFILM AND IDR PEPTIDES” (priority 2013, published 2019)
Ends that are not written are not given here.

Each substance was assayed on methicillin resistant Staphylococcus aureus (MRSA) biofilm (assay: not given). Details: approximate peptide concentration […] (around 3 μg/ml); compared to untreated samples.
In short: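 Peptide was present from inoculation onward, with bacteria seeded at 1/100 from overnight cultures into BM2 biofilm medium or Luria Broth. Crystal violet staining of surface-attached cells (A595) quantified biofilm reduction at 22–46 h. K. pneumoniae was additionally screened in a real-time Bioflux flow device for some peptides.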

| Substance | % Biofilm inhibition |
| --- | --- |
| 1018-I10: single substituted 1018 peptide (VRLIVAVRIIRR-NH2) [Peptide 1018-I10] | 58% |
| HH2-V8: single substituted HH2 peptide (VQLRIRVVVIRA-NH2) | 66% |
| HH2-V5: single substituted HH2 peptide (VQLRVRVAVIRA-NH2) | 50% |
| 1002-L6: single substituted 1002 peptide (VQRWLLVWRIRK-NH2) [Peptide 1002-L6] | 52% |
| 1018-A2: single substituted 1018 peptide (VALIVAVRIWRR-NH2) [Peptide 1018-A2] | 64% |
| 1002-L7: single substituted 1002 peptide (VQRWLILWRIRK-NH2) [Peptide 1002-L7] | 57% |
| 1018-G6: single substituted 1018 peptide (VRLIVGVRIWRR-NH2) [Peptide 1018-G6] | 36% |
| 1002-R8: single substituted 1002 peptide (VQRWLIVRRIRK-NH2) [Peptide 1002-R8] | 23% |
| 1018-K11: single substituted 1018 peptide (VRLIVAVRIWKR-NH2) [Peptide 1018-K11] | 68% |
| HH2-I1: single substituted HH2 peptide (IQLRIRVAVIRA-NH2) | 73% |
| HH2-G4: single substituted HH2 peptide (VQLGIRVAVIRA-NH2) | 40% |
| 1018-K10: single substituted 1018 peptide (VRLIVAVRIKRR-NH2) [Peptide 1018-K10] | 63% |

What follows are substances tested on human peripheral blood mononuclear cells (MCP-1) (assay: SPOT-synthesized derivative screen: production of chemokine MCP-1). Details: Table 12; No LPS; human PBMC, peptide at ~18-24 μM.
Type: cell-based
In short: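 MCP-1 was quantified by capture ELISA in cleared culture supernatants of treated human peripheral blood mononuclear cells. Cells came from heparinized volunteer blood via Ficoll gradient and were seeded at 0.75 to 1×10^6 cells/ml (37 °C, 5% CO2).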

| Substance | Fold increase in MCP1 cf. untreated cells |
| --- | --- |
| 1018-I10: single substituted 1018 peptide (VRLIVAVRIIRR-NH2) [Peptide 1018-I10] | 1.3 |
| HH2-V8: single substituted HH2 peptide (VQLRIRVVVIRA-NH2) | 45 |
| HH2-V5: single substituted HH2 peptide (VQLRVRVAVIRA-NH2) | 9.3 |
| 1002-L6: single substituted 1002 peptide (VQRWLLVWRIRK-NH2) [Peptide 1002-L6] | 1.3 |
| 1018-A2: single substituted 1018 peptide (VALIVAVRIWRR-NH2) [Peptide 1018-A2] | 0.6 |
| 1002-L7: single substituted 1002 peptide (VQRWLILWRIRK-NH2) [Peptide 1002-L7] | 1.8 |
| 1018-G6: single substituted 1018 peptide (VRLIVGVRIWRR-NH2) [Peptide 1018-G6] | 22 |
| 1002-R8: single substituted 1002 peptide (VQRWLIVRRIRK-NH2) [Peptide 1002-R8] | 1.0 |
| 1018-K11: single substituted 1018 peptide (VRLIVAVRIWKR-NH2) [Peptide 1018-K11] | 9.3 |
| HH2-I1: single substituted HH2 peptide (IQLRIRVAVIRA-NH2) | 51 |
| HH2-G4: single substituted HH2 peptide (VQLGIRVAVIRA-NH2) | 148 |
| 1018-K10: single substituted 1018 peptide (VRLIVAVRIKRR-NH2) [Peptide 1018-K10] | 3.3 |

Same assay, conditions: Table 12; No LPS; human PBMC, peptide at ~18-24 μM; background subtracted 139 (HH2 derivatives), 170 (1018 derivatives), 242 (1002 and hybrid peptides) pg/ml

| Substance | MCP1 |
| --- | --- |
| 1018-I10: single substituted 1018 peptide (VRLIVAVRIIRR-NH2) [Peptide 1018-I10] | 56 pg/mL |
| HH2-V8: single substituted HH2 peptide (VQLRIRVVVIRA-NH2) | 7460 pg/mL |
| HH2-V5: single substituted HH2 peptide (VQLRVRVAVIRA-NH2) | 1409 pg/mL |
| 1002-L6: single substituted 1002 peptide (VQRWLLVWRIRK-NH2) [Peptide 1002-L6] | 68.0 pg/mL |
| 1018-A2: single substituted 1018 peptide (VALIVAVRIWRR-NH2) [Peptide 1018-A2] | -65 pg/mL |
| 1002-L7: single substituted 1002 peptide (VQRWLILWRIRK-NH2) [Peptide 1002-L7] | 199.1 pg/mL |
| 1018-G6: single substituted 1018 peptide (VRLIVGVRIWRR-NH2) [Peptide 1018-G6] | 3560 pg/mL |
| 1002-R8: single substituted 1002 peptide (VQRWLIVRRIRK-NH2) [Peptide 1002-R8] | -11.7 pg/mL |
| 1018-K11: single substituted 1018 peptide (VRLIVAVRIWKR-NH2) [Peptide 1018-K11] | 1419 pg/mL |
| HH2-I1: single substituted HH2 peptide (IQLRIRVAVIRA-NH2) | 8573 pg/mL |
| HH2-G4: single substituted HH2 peptide (VQLGIRVAVIRA-NH2) | 25045 pg/mL |
| 1018-K10: single substituted 1018 peptide (VRLIVAVRIKRR-NH2) [Peptide 1018-K10] | 390 pg/mL |

What follows are substances tested on LPS-stimulated human peripheral blood mononuclear cells (IL1-β) (assay: not given). Details: Table 12; cells stimulated with 10 ng/ml LPS.
Type: cell-based

| Substance | Fold change in IL1β relative to no peptide LPS stimulated cells |
| --- | --- |
| 1018-I10: single substituted 1018 peptide (VRLIVAVRIIRR-NH2) [Peptide 1018-I10] | 0.10 |
| HH2-V8: single substituted HH2 peptide (VQLRIRVVVIRA-NH2) | 0.53 |
| HH2-V5: single substituted HH2 peptide (VQLRVRVAVIRA-NH2) | 1.29 |
| 1002-L6: single substituted 1002 peptide (VQRWLLVWRIRK-NH2) [Peptide 1002-L6] | 0.05 |
| 1018-A2: single substituted 1018 peptide (VALIVAVRIWRR-NH2) [Peptide 1018-A2] | 0.10 |
| 1002-L7: single substituted 1002 peptide (VQRWLILWRIRK-NH2) [Peptide 1002-L7] | 0.05 |
| 1018-G6: single substituted 1018 peptide (VRLIVGVRIWRR-NH2) [Peptide 1018-G6] | 0.46 |
| 1002-R8: single substituted 1002 peptide (VQRWLIVRRIRK-NH2) [Peptide 1002-R8] | 0.36 |
| 1018-K11: single substituted 1018 peptide (VRLIVAVRIWKR-NH2) [Peptide 1018-K11] | 0.13 |
| HH2-I1: single substituted HH2 peptide (IQLRIRVAVIRA-NH2) | 0.84 |
| HH2-G4: single substituted HH2 peptide (VQLGIRVAVIRA-NH2) | 1.21 |
| 1018-K10: single substituted 1018 peptide (VRLIVAVRIKRR-NH2) [Peptide 1018-K10] | 0.24 |

Same assay, conditions: Table 12; cells stimulated with 10 ng/ml LPS; LPS alone 1313 (HH2 derivatives), 1927 (1018 derivatives), 2455 (1002 and hybrid peptides) pg/ml

| Substance | IL1β Production |
| --- | --- |
| 1018-I10: single substituted 1018 peptide (VRLIVAVRIIRR-NH2) [Peptide 1018-I10] | 135 pg/mL |
| HH2-V8: single substituted HH2 peptide (VQLRIRVVVIRA-NH2) | 691 pg/mL |
| HH2-V5: single substituted HH2 peptide (VQLRVRVAVIRA-NH2) | 1696 pg/mL |
| 1002-L6: single substituted 1002 peptide (VQRWLLVWRIRK-NH2) [Peptide 1002-L6] | 127 pg/mL |
| 1018-A2: single substituted 1018 peptide (VALIVAVRIWRR-NH2) [Peptide 1018-A2] | 127 pg/mL |
| 1002-L7: single substituted 1002 peptide (VQRWLILWRIRK-NH2) [Peptide 1002-L7] | 127 pg/mL |
| 1018-G6: single substituted 1018 peptide (VRLIVGVRIWRR-NH2) [Peptide 1018-G6] | 598 pg/mL |
| 1002-R8: single substituted 1002 peptide (VQRWLIVRRIRK-NH2) [Peptide 1002-R8] | 892 pg/mL |
| 1018-K11: single substituted 1018 peptide (VRLIVAVRIWKR-NH2) [Peptide 1018-K11] | 170 pg/mL |
| HH2-I1: single substituted HH2 peptide (IQLRIRVAVIRA-NH2) | 1103 pg/mL |
| HH2-G4: single substituted HH2 peptide (VQLGIRVAVIRA-NH2) | 1582 pg/mL |
| 1018-K10: single substituted 1018 peptide (VRLIVAVRIKRR-NH2) [Peptide 1018-K10] | 310 pg/mL |
